Where two headings read alike, the source gives them in different places.
Experiment: Multiple ascending dose study: plasma pharmacokinetics
Type: in vivo
Details: human, po; for Tmax: read-out: tmax Median
Protocol: Four sequential cohorts of healthy participants (≥50 years and ≤85 years old) were treated with multiple ascending doses of Compound A up to the maximum tolerated dose (MTD). A total of 6 participants per cohort were randomized to Compound A. Proposed doses of Compound A were:
Participants received Compound A capsules, orally once daily (QD) on Days 1 to 14 after an overnight fast of at least 10 hours. Compound A was administered orally with 240 milliliter (mL) (8 fluid ounces) of water.
1) Maximum drug concentration (Cmax) [Time Frame: Day 1 and Day 14]
Blood samples were collected on Day 1 at predose and postdose 0.5 (30 minutes), 1, 1.5, 2, 3, 4, 5, 6, 8, 12, and 18 hours; Day 14 (at predose and postdose 0.5, 1, 1.5, 2, 3, 4, 5, 6, 8, 12, and 18 hours); and Day 15 (24 hours postdose from Day 14).
2) Mean time to reach maximum (peak) drug concentration (tmax) [Time Frame: Day 1 and Day 14]
4) Mean area under the concentration-time curve from zero time extrapolated to infinity (AUC(0-inf)) [Time Frame: Day 14]

## COc1ncc(C)c(-c2ccc3c(c2)[nH]c(=O)c2cnn([C@H]4CCOC4)c23)c1C [Compound A, (S)-7-(2-methoxy-3,5-dimethylpyridin-4-yl)-1-(tetrahydrofuran-3-yl)-1H-pyrazolo[4,3-c]quin olin-4(5H)-one]
50 mg, Part C, 50 mg oral, read-out: Cmax GM (% CV)
  Cmax: 594 ng/mL
50 mg, Part C, 50 mg oral, read-out: Cmax Mean (SD)
  Cmax: 608 ng/mL
50 mg, Part C, 50 mg oral, read-out: Cmax Median
  Cmax: 590 ng/mL
50 mg, Part C, 50 mg oral
  Tmax: 1.98 h
100 mg, Day 1, 100 mg QD oral, read-out: AUC(0-24 h) GM (% CV)
  AUC(0-t): 5230 ng·h/mL
100 mg, Day 1, 100 mg QD oral, read-out: AUC(0-24 h) Mean (SD)
  AUC(0-t): 5250 ng·h/mL
100 mg, Day 1, 100 mg QD oral, read-out: AUC(0-24 h) Median
  AUC(0-t): 5180 ng·h/mL
100 mg, Day 1, 100 mg QD oral, read-out: Cmax GM (% CV)
  Cmax: 366 ng/mL
100 mg, Day 1, 100 mg QD oral, read-out: Cmax Mean (SD)
  Cmax: 373 ng/mL
100 mg, Day 1, 100 mg QD oral, read-out: Cmax Median
  Cmax: 344 ng/mL
100 mg, Day 1, 100 mg QD oral
  Tmax: 2.53 h
100 mg, Day 14, 100 mg QD oral, read-out: AUC(0-24 h) GM (% CV)
  AUC(0-t): 16600 ng·h/mL
100 mg, Day 14, 100 mg QD oral, read-out: AUC(0-24 h) Mean (SD)
  AUC(0-t): 16900 ng·h/mL
100 mg, Day 14, 100 mg QD oral, read-out: AUC(0-24 h) Median
  AUC(0-t): 16800 ng·h/mL
100 mg, Day 14, 100 mg QD oral, read-out: AUC(0-inf) GM (% CV)
  AUC(0-inf): 56400 ng·h/mL
100 mg, Day 14, 100 mg QD oral, read-out: AUC(0-inf) Mean (SD)
  AUC(0-inf): 58600 ng·h/mL
100 mg, Day 14, 100 mg QD oral, read-out: AUC(0-inf) Median
  AUC(0-inf): 62700 ng·h/mL
100 mg, Day 14, 100 mg QD oral, read-out: Cmax GM (% CV)
  Cmax: 1010 ng/mL
100 mg, Day 14, 100 mg QD oral, read-out: Cmax Mean (SD)
  Cmax: 1020 ng/mL
100 mg, Day 14, 100 mg QD oral, read-out: Cmax Median
  Cmax: 1030 ng/mL
100 mg, Day 14, 100 mg QD oral
  Tmax: 2.56 h
200 mg, Day 1, 200 mg QD oral, read-out: AUC(0-24 h) GM (% CV)
  AUC(0-t): 8650 ng·h/mL
200 mg, Day 1, 200 mg QD oral, read-out: AUC(0-24 h) Mean (SD)
  AUC(0-t): 9050 ng·h/mL
200 mg, Day 1, 200 mg QD oral, read-out: AUC(0-24 h) Median
  AUC(0-t): 10400 ng·h/mL
200 mg, Day 1, 200 mg QD oral, read-out: Cmax GM (% CV)
  Cmax: 687 ng/mL
200 mg, Day 1, 200 mg QD oral, read-out: Cmax Mean (SD)
  Cmax: 740 ng/mL
200 mg, Day 1, 200 mg QD oral, read-out: Cmax Median
  Cmax: 813 ng/mL
200 mg, Day 1, 200 mg QD oral
  Tmax: 2.01 h
200 mg, Day 14, 200 mg QD oral, read-out: AUC(0-24 h) GM (% CV)
  AUC(0-t): 22800 ng·h/mL
200 mg, Day 14, 200 mg QD oral, read-out: AUC(0-24 h) Mean (SD)
  AUC(0-t): 23100 ng·h/mL
200 mg, Day 14, 200 mg QD oral, read-out: AUC(0-24 h) Median
  AUC(0-t): 21300 ng·h/mL
200 mg, Day 14, 200 mg QD oral, read-out: AUC(0-inf) GM (% CV)
  AUC(0-inf): 70500 ng·h/mL
200 mg, Day 14, 200 mg QD oral, read-out: AUC(0-inf) Mean (SD)
  AUC(0-inf): 72200 ng·h/mL
200 mg, Day 14, 200 mg QD oral, read-out: AUC(0-inf) Median
  AUC(0-inf): 61900 ng·h/mL
200 mg, Day 14, 200 mg QD oral, read-out: Cmax GM (% CV)
  Cmax: 1680 ng/mL
200 mg, Day 14, 200 mg QD oral, read-out: Cmax Mean (SD)
  Cmax: 1730 ng/mL
200 mg, Day 14, 200 mg QD oral, read-out: Cmax Median
  Cmax: 1950 ng/mL
200 mg, Day 14, 200 mg QD oral
  Tmax: 2 h
400 mg, Day 1, 400 mg QD oral, Japanese, read-out: AUC(0-24 h) GM (% CV)
  AUC(0-t): 18300 ng·h/mL
400 mg, Day 1, 400 mg QD oral, Japanese, read-out: AUC(0-24 h) Mean (SD)
  AUC(0-t): 18400 ng·h/mL
400 mg, Day 1, 400 mg QD oral, Japanese, read-out: AUC(0-24 h) Median
  AUC(0-t): 18900 ng·h/mL
400 mg, Day 1, 400 mg QD oral, Japanese, read-out: Cmax GM (% CV)
  Cmax: 1510 ng/mL
400 mg, Day 1, 400 mg QD oral, Japanese, read-out: Cmax Mean (SD)
  Cmax: 1520 ng/mL
400 mg, Day 1, 400 mg QD oral, Japanese, read-out: Cmax Median
  Cmax: 1510 ng/mL
400 mg, Day 1, 400 mg QD oral, Japanese
  Tmax: 2 h
400 mg, Day 1, 400 mg QD oral, Non-Japanese, read-out: AUC(0-24 h) GM (% CV)
  AUC(0-t): 14500 ng·h/mL
400 mg, Day 1, 400 mg QD oral, Non-Japanese, read-out: AUC(0-24 h) Mean (SD)
  AUC(0-t): 14600 ng·h/mL
400 mg, Day 1, 400 mg QD oral, Non-Japanese, read-out: AUC(0-24 h) Median
  AUC(0-t): 14700 ng·h/mL
400 mg, Day 1, 400 mg QD oral, Non-Japanese, read-out: Cmax GM (% CV)
  Cmax: 1100 ng/mL
400 mg, Day 1, 400 mg QD oral, Non-Japanese, read-out: Cmax Mean (SD)
  Cmax: 1100 ng/mL
400 mg, Day 1, 400 mg QD oral, Non-Japanese, read-out: Cmax Median
  Cmax: 1140 ng/mL
400 mg, Day 1, 400 mg QD oral, Non-Japanese
  Tmax: 1.76 h
400 mg, Day 14, 400 mg QD oral, Japanese, read-out: AUC(0-24 h) GM (% CV)
  AUC(0-t): 42700 ng·h/mL
400 mg, Day 14, 400 mg QD oral, Japanese, read-out: AUC(0-24 h) Mean (SD)
  AUC(0-t): 42900 ng·h/mL
400 mg, Day 14, 400 mg QD oral, Japanese, read-out: AUC(0-24 h) Median
  AUC(0-t): 43200 ng·h/mL
400 mg, Day 14, 400 mg QD oral, Japanese, read-out: AUC(0-inf) GM (% CV)
  AUC(0-inf): 122000 ng·h/mL
400 mg, Day 14, 400 mg QD oral, Japanese, read-out: AUC(0-inf) Mean (SD)
  AUC(0-inf): 125000 ng·h/mL
400 mg, Day 14, 400 mg QD oral, Japanese, read-out: AUC(0-inf) Median
  AUC(0-inf): 120000 ng·h/mL
400 mg, Day 14, 400 mg QD oral, Japanese, read-out: Cmax GM (% CV)
  Cmax: 3080 ng/mL
400 mg, Day 14, 400 mg QD oral, Japanese, read-out: Cmax Mean (SD)
  Cmax: 3100 ng/mL
400 mg, Day 14, 400 mg QD oral, Japanese, read-out: Cmax Median
  Cmax: 3250 ng/mL
400 mg, Day 14, 400 mg QD oral, Japanese
  Tmax: 1.5 h
400 mg, Day 14, 400 mg QD oral, Non-Japanese, read-out: AUC(0-24 h) GM (% CV)
  AUC(0-t): 39200 ng·h/mL
400 mg, Day 14, 400 mg QD oral, Non-Japanese, read-out: AUC(0-24 h) Mean (SD)
  AUC(0-t): 40300 ng·h/mL
400 mg, Day 14, 400 mg QD oral, Non-Japanese, read-out: AUC(0-24 h) Median
  AUC(0-t): 43900 ng·h/mL
400 mg, Day 14, 400 mg QD oral, Non-Japanese, read-out: AUC(0-inf) GM (% CV)
  AUC(0-inf): 121000 ng·h/mL
400 mg, Day 14, 400 mg QD oral, Non-Japanese, read-out: AUC(0-inf) Mean (SD)
  AUC(0-inf): 135000 ng·h/mL
400 mg, Day 14, 400 mg QD oral, Non-Japanese, read-out: AUC(0-inf) Median
  AUC(0-inf): 141000 ng·h/mL
400 mg, Day 14, 400 mg QD oral, Non-Japanese, read-out: Cmax GM (% CV)
  Cmax: 2740 ng/mL
400 mg, Day 14, 400 mg QD oral, Non-Japanese, read-out: Cmax Mean (SD)
  Cmax: 2820 ng/mL
400 mg, Day 14, 400 mg QD oral, Non-Japanese, read-out: Cmax Median
  Cmax: 3050 ng/mL
400 mg, Day 14, 400 mg QD oral, Non-Japanese
  Tmax: 1.79 h
